Results published in patent US9833497B2, “Human originated EGF domain proteins and use of the same” (CHENGDU SOURCEBIO LIMITED-LIABILITY COMPANY, priority 2013, dated 2017).

Key:
Type in all cases: cell-based
Klebsiella pneumonia = test: MIC against Gram-negative bacteria: Klebsiella pneumonia; conditions: 5×10^5 CFU/mL
Outline: (§1)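 Inocula prepared by growing LB cultures at 37° C to 0.5 McFarland, centrifuging at 4000×g, and resuspending in fresh medium. Final density 5×10^5 CFU/mL per well with two-fold dilutions of purified EGF domain protein; shaking incubation at 37° C.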

Citrobacter diversus = test: MIC against Gram-negative bacteria: Citrobacter diversus; conditions: 5×10^5 CFU/mL
Outline: as §1

E. coli BL21 = test: MIC against Gram-negative bacteria: E. coli BL21; conditions: 5×10^5 CFU/mL
Outline: as §1

Aeromonas hydrophila = test: MIC against Gram-negative bacteria: Aeromonas hydrophila; conditions: 5×10^5 CFU/mL
Outline: as §1

Moraxella catarrhalis = test: MIC against Gram-negative bacteria: Moraxella catarrhalis; conditions: 5×10^5 CFU/mL
Outline: as §1

Enterobacter cloacae = test: MIC against Gram-negative bacteria: Enterobacter cloacae; conditions: 5×10^5 CFU/mL
Outline: as §1

Pseudomonas aeruginosa = test: MIC against Gram-negative bacteria: Pseudomonas aeruginosa; conditions: 5×10^5 CFU/mL
Outline: as §1

Serratia marcescens = test: MIC against Gram-negative bacteria: Serratia marcescens; conditions: 5×10^5 CFU/mL
Outline: as §1

Proteus mirabilis = test: MIC against Gram-negative bacteria: Proteus mirabilis; conditions: 5×10^5 CFU/mL
Outline: as §1

Proteus vulgaris = test: MIC against Gram-negative bacteria: Proteus vulgaris; conditions: 5×10^5 CFU/mL
Outline: as §1

E. coli DH5α = test: Antibacterial activity: MIC and growth curve against E. coli DH5α in 96-well plate; conditions: minimal inhibitory concentration against E. coli DH5α; 96-well plate, 5×10^5 CFU/mL, 37° C., judged after 8 h
Outline: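 Log-phase DH5α (OD600 about 0.5, 37° C, 185 rpm in LB) was pelleted, resuspended in fresh LB and seeded at 5×10^5 CFU/mL with recombinant protein at 50, 25 and 12.5 μg/mL (two-fold series), in triplicate. Plates were shaken at 175 rpm, 37° C, and OD600 was read every 30 min. MIC was the lowest concentration with no growth.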

[1] = K. pneumonia, 10 h cultivation at 37° C.
[2] = C. diversus, 10 h cultivation at 37° C.
[3] = A. hydrophila, 10 h cultivation at 37° C.
[4] = M. catarrhalis, 10 h cultivation at 37° C.
[5] = E. cloacae, 10 h cultivation at 37° C.
[6] = P. aeruginosa, 10 h cultivation at 37° C.
[7] = S. marcescens, 10 h cultivation at 37° C.
[8] = P. mirabilis, 10 h cultivation at 37° C.
[9] = P. vulgaris, 10 h cultivation at 37° C.
[10] = Klebsiella pneumonia, 10 h cultivation at 37° C.
[11] = Citrobacter diversus, 10 h cultivation at 37° C.
[12] = Aeromonas hydrophila, 10 h cultivation at 37° C.
[13] = Moraxella catarrhalis, 10 h cultivation at 37° C.
[14] = Enterobacter cloacae, 10 h cultivation at 37° C.
[15] = Pseudomonas aeruginosa, 10 h cultivation at 37° C.
[16] = Serratia marcescens, 10 h cultivation at 37° C.
[17] = Proteus mirabilis, 10 h cultivation at 37° C.
[18] = Proteus vulgaris, 10 h cultivation at 37° C.
[19] = 10 h cultivation at 37° C., two-fold serial dilution
[20] = Klebsiella pneumonia, 96-well plate, 37° C., 10 h
[21] = Citrobacter diversus, 96-well plate, 37° C., 10 h
[22] = Aeromonas hydrophila, 96-well plate, 37° C., 10 h
[23] = Moraxella catarrhalis, 96-well plate, 37° C., 10 h
[24] = Enterobacter cloacae, 96-well plate, 37° C., 10 h
[25] = Pseudomonas aeruginosa, 96-well plate, 37° C., 10 h
[26] = Serratia marcescens, 96-well plate, 37° C., 10 h
[27] = Proteus mirabilis, 96-well plate, 37° C., 10 h
[28] = Proteus vulgaris, 96-well plate, 37° C., 10 h

PRT186 (STLSCADSPCFNGGSCRERNQGANYACECPPNFTGSNCE; listed as Homo sapiens)
MIC (μg/mL) K. pneumonia (Klebsiella pneumonia; [1]): 25 µg/mL
MIC (μg/mL) C. diversus (Citrobacter diversus; [2]): 12.5 µg/mL
MIC (μg/mL) E. coli BL21 (E. coli BL21; 10 h cultivation at 37° C.): 50 µg/mL
MIC (μg/mL) A. hydrophila (Aeromonas hydrophila; [3]): 25 µg/mL
MIC (μg/mL) M. catarrhalis (Moraxella catarrhalis; [4]): 25 µg/mL
MIC (μg/mL) E. cloacae (Enterobacter cloacae; [5]): 50 µg/mL
MIC (μg/mL) P. aeruginosa (Pseudomonas aeruginosa; [6]): 12.5 µg/mL
MIC (μg/mL) S. marcescens (Serratia marcescens; [7]): 12.5 µg/mL
MIC (μg/mL) P. mirabilis (Proteus mirabilis; [8]): 12.5 µg/mL
MIC (μg/mL) P. vulgaris (Proteus vulgaris; [9]): 25 µg/mL
MIC (E. coli DH5α): 12.5 µg/mL

PRT1389 (PEEQCIDPTCFGHGTCIMGVCICVPGYKGEICE; listed as Homo sapiens)
MIC against K. pneumonia (Klebsiella pneumonia; [10]): 12.5 µg/mL
MIC against C. diversus (Citrobacter diversus; [11]): 12.5 µg/mL
MIC against E. coli BL21 (E. coli BL21; 10 h cultivation at 37° C.): 12.5 µg/mL
MIC against A. hydrophila (Aeromonas hydrophila; [12]): 12.5 µg/mL
MIC against M. catarrhalis (Moraxella catarrhalis; [13]): 12.5 µg/mL
MIC against E. cloacae (Enterobacter cloacae; [14]): 25 µg/mL
MIC against P. aeruginosa (Pseudomonas aeruginosa; [15]): 25 µg/mL
MIC against S. marcescens (Serratia marcescens; [16]): 12.5 µg/mL
MIC against P. mirabilis (Proteus mirabilis; [17]): 12.5 µg/mL
MIC against P. vulgaris (Proteus vulgaris; [18]): 25 µg/mL
MIC (E. coli DH5α): 25 µg/mL

PRT720 (INECHDPSISGCDHNCTDTLTSFYCSCRPGYKLMSDKRTCV; listed as Homo sapiens)
MIC K. pneumonia (Klebsiella pneumonia; 96-well plate, 37° C., 10 h): 12.5 µg/mL
MIC C. diversus (Citrobacter diversus; 96-well plate, 37° C., 10 h): 25 µg/mL
MIC E. coli BL21 (E. coli BL21; 96-well plate, 37° C., 10 h): 25 µg/mL
MIC A. hydrophila (Aeromonas hydrophila; 96-well plate, 37° C., 10 h): 12.5 µg/mL
MIC M. catarrhalis (Moraxella catarrhalis; 96-well plate, 37° C., 10 h): 50 µg/mL
MIC E. cloacae (Enterobacter cloacae; 96-well plate, 37° C., 10 h): 50 µg/mL
MIC P. aeruginosa (Pseudomonas aeruginosa; 96-well plate, 37° C., 10 h): 12.5 µg/mL
MIC S. marcescens (Serratia marcescens; 96-well plate, 37° C., 10 h): 50 µg/mL
MIC P. mirabilis (Proteus mirabilis; 96-well plate, 37° C., 10 h): 25 µg/mL
MIC P. vulgaris (Proteus vulgaris; 96-well plate, 37° C., 10 h): 12.5 µg/mL
MIC (E. coli DH5α): 50 µg/mL

PRT1076 (SCLTCVGHCSNGGSCTMNSKMMPECQCPPHMTGPRCE; listed as Homo sapiens)
MIC K. pneumonia (Klebsiella pneumonia; [19]): 25 µg/mL
MIC C. diversus (Citrobacter diversus; [19]): 12.5 µg/mL
MIC E. coli BL21 (E. coli BL21; [19]): 25 µg/mL
MIC A. hydrophila (Aeromonas hydrophila; [19]): 12.5 µg/mL
MIC M. catarrhalis (Moraxella catarrhalis; [19]): 12.5 µg/mL
MIC E. cloacae (Enterobacter cloacae; [19]): 12.5 µg/mL
MIC P. aeruginosa (Pseudomonas aeruginosa; [19]): 12.5 µg/mL
MIC S. marcescens (Serratia marcescens; [19]): 25 µg/mL
MIC P. mirabilis (Proteus mirabilis; [19]): 25 µg/mL
MIC P. vulgaris (Proteus vulgaris; [19]): 12.5 µg/mL
MIC (E. coli DH5α): 12.5 µg/mL

PRT1303 (HGLCRSVEKDSVVCECRPGWTGPLCD; listed as Homo sapiens)
MIC against K. pneumonia (Klebsiella pneumonia; [20]): 50 µg/mL
MIC against C. diversus (Citrobacter diversus; [21]): 12.5 µg/mL
MIC against E. coli BL21 (E. coli BL21; 96-well plate, 37° C., 10 h): 50 µg/mL
MIC against A. hydrophila (Aeromonas hydrophila; [22]): 50 µg/mL
MIC against M. catarrhalis (Moraxella catarrhalis; [23]): 12.5 µg/mL
MIC against E. cloacae (Enterobacter cloacae; [24]): 12.5 µg/mL
MIC against P. aeruginosa (Pseudomonas aeruginosa; [25]): 12.5 µg/mL
MIC against S. marcescens (Serratia marcescens; [26]): 25 µg/mL
MIC against P. mirabilis (Proteus mirabilis; [27]): 25 µg/mL
MIC against P. vulgaris (Proteus vulgaris; [28]): 12.5 µg/mL
MIC (E. coli DH5α): 12.5 µg/mL

PRT117 (DVDECALGRSPCAQGCTNTDGSFHCSCEEGYVLAGEDGTQCQ; listed as Homo sapiens)
MIC (μg/mL) K. pneumonia (Klebsiella pneumonia; [20]): 12.5 µg/mL
MIC (μg/mL) C. diversus (Citrobacter diversus; [21]): 25 µg/mL
MIC (μg/mL) E. coli BL21 (E. coli BL21; 96-well plate, 37° C., 10 h): 12.5 µg/mL
MIC (μg/mL) A. hydrophila (Aeromonas hydrophila; [22]): 12.5 µg/mL
MIC (μg/mL) M. catarrhalis (Moraxella catarrhalis; [23]): 12.5 µg/mL
MIC (μg/mL) E. cloacae (Enterobacter cloacae; [24]): 25 µg/mL
MIC (μg/mL) P. aeruginosa (Pseudomonas aeruginosa; [25]): 25 µg/mL
MIC (μg/mL) S. marcescens (Serratia marcescens; [26]): 12.5 µg/mL
MIC (μg/mL) P. mirabilis (Proteus mirabilis; [27]): 25 µg/mL
MIC (μg/mL) P. vulgaris (Proteus vulgaris; [28]): 12.5 µg/mL
MIC (E. coli DH5α): 12.5 µg/mL

PRT243 (DVNECGMKPRPCQHRCVNTHGSYKCFCLSGHMLMPDATCV; listed as Homo sapiens)
MIC (μg/mL) K. pneumonia (Klebsiella pneumonia; [1]): 12.5 µg/mL
MIC (μg/mL) C. diversus (Citrobacter diversus; [2]): 12.5 µg/mL
MIC (μg/mL) E. coli BL21 (E. coli BL21; 10 h cultivation at 37° C.): 12.5 µg/mL
MIC (μg/mL) A. hydrophila (Aeromonas hydrophila; [3]): 25 µg/mL
MIC (μg/mL) M. catarrhalis (Moraxella catarrhalis; [4]): 25 µg/mL
MIC (μg/mL) E. cloacae (Enterobacter cloacae; [5]): 12.5 µg/mL
MIC (μg/mL) P. aeruginosa (Pseudomonas aeruginosa; [6]): 12.5 µg/mL
MIC (μg/mL) S. marcescens (Serratia marcescens; [7]): 12.5 µg/mL
MIC (μg/mL) P. mirabilis (Proteus mirabilis; [8]): 12.5 µg/mL
MIC (μg/mL) P. vulgaris (Proteus vulgaris; [9]): 25 µg/mL
MIC (E. coli DH5α): 12.5 µg/mL

PRT1234 (LASGCPWMCSGRGICDAGRCVCDRGFGGPYCV; listed as Homo sapiens)
MIC against K. pneumonia (Klebsiella pneumonia; [20]): 25 µg/mL
MIC against C. diversus (Citrobacter diversus; [21]): 25 µg/mL
MIC against E. coli BL21 (E. coli BL21; 96-well plate, 37° C., 10 h): 50 µg/mL
MIC against A. hydrophila (Aeromonas hydrophila; [22]): 25 µg/mL
MIC against M. catarrhalis (Moraxella catarrhalis; [23]): 25 µg/mL
MIC against E. cloacae (Enterobacter cloacae; [24]): 50 µg/mL
MIC against P. aeruginosa (Pseudomonas aeruginosa; [25]): 12.5 µg/mL
MIC against S. marcescens (Serratia marcescens; [26]): 25 µg/mL
MIC against P. mirabilis (Proteus mirabilis; [27]): 25 µg/mL
MIC against P. vulgaris (Proteus vulgaris; [28]): 12.5 µg/mL
MIC (E. coli DH5α): 25 µg/mL

PRT1462 (CQCNLHGSVNKFCNPHSGQCECKKEAKGLQCDTCRENFYGLDVTNCKA; listed as Homo sapiens)
MIC against K. pneumonia (Klebsiella pneumonia; [10]): 12.5 µg/mL
MIC against C. diversus (Citrobacter diversus; [11]): 25 µg/mL
MIC against E. coli BL21 (E. coli BL21; 10 h cultivation at 37° C.): 25 µg/mL
MIC against A. hydrophila (Aeromonas hydrophila; [12]): 12.5 µg/mL
MIC against M. catarrhalis (Moraxella catarrhalis; [13]): 12.5 µg/mL
MIC against E. cloacae (Enterobacter cloacae; [14]): 12.5 µg/mL
MIC against P. aeruginosa (Pseudomonas aeruginosa; [15]): 100 µg/mL
MIC against S. marcescens (Serratia marcescens; [16]): 25 µg/mL
MIC against P. mirabilis (Proteus mirabilis; [17]): 25 µg/mL
MIC against P. vulgaris (Proteus vulgaris; [18]): 12.5 µg/mL
MIC (E. coli DH5α): 12.5 µg/mL

PRT1088 (PVNPCCYYPCQHQGICVRFGLDRYQCDCTRTGYSGPNCT; listed as Homo sapiens)
MIC K. pneumonia (Klebsiella pneumonia; [19]): 12.5 µg/mL
MIC C. diversus (Citrobacter diversus; [19]): 50 µg/mL
MIC E. coli BL21 (E. coli BL21; [19]): 50 µg/mL
MIC A. hydrophila (Aeromonas hydrophila; [19]): 50 µg/mL
MIC M. catarrhalis (Moraxella catarrhalis; [19]): 25 µg/mL
MIC E. cloacae (Enterobacter cloacae; [19]): 50 µg/mL
MIC P. aeruginosa (Pseudomonas aeruginosa; [19]): 50 µg/mL
MIC S. marcescens (Serratia marcescens; [19]): 50 µg/mL
MIC P. mirabilis (Proteus mirabilis; [19]): 12.5 µg/mL
MIC P. vulgaris (Proteus vulgaris; [19]): 25 µg/mL
MIC (E. coli DH5α): 25 µg/mL
